Results on 16 compounds are retold here after US9321776B2, “Isochromene derivatives as phoshoinositide 3-kinases inhibitors” (CHIESI FARMACEUTICI S.p.A., priority 2013, dated 2016).

Common to all, as to experiment: PI3K enzyme inhibitory activity in the cell free assay (ADP-Glo Kinase Assay)
Common to all, as to format: biochemical

Assay [1] addresses T1, PI3Kα (Homo sapiens, UniProt P42336).
T1 construct: purchased Millipore Ltd (Billerica, Mass.)
As to conditions: human recombinant PI3Kα, ATP 50 μM; read-out: PI3K alpha inhibition.

In assay [2] the target is T2, PI3Kβ (Homo sapiens, UniProt P42338).
T2 construct: purchased Millipore Ltd (Billerica, Mass.)
The following applies: human recombinant PI3Kβ, ATP 100 μM; read-out: PI3K beta inhibition.

The target in assay [3] is T3, PI3Kδ (Homo sapiens, UniProt O00329).
T3 construct: purchased Millipore Ltd (Billerica, Mass.)
T3 sequence (O00329 1-1044): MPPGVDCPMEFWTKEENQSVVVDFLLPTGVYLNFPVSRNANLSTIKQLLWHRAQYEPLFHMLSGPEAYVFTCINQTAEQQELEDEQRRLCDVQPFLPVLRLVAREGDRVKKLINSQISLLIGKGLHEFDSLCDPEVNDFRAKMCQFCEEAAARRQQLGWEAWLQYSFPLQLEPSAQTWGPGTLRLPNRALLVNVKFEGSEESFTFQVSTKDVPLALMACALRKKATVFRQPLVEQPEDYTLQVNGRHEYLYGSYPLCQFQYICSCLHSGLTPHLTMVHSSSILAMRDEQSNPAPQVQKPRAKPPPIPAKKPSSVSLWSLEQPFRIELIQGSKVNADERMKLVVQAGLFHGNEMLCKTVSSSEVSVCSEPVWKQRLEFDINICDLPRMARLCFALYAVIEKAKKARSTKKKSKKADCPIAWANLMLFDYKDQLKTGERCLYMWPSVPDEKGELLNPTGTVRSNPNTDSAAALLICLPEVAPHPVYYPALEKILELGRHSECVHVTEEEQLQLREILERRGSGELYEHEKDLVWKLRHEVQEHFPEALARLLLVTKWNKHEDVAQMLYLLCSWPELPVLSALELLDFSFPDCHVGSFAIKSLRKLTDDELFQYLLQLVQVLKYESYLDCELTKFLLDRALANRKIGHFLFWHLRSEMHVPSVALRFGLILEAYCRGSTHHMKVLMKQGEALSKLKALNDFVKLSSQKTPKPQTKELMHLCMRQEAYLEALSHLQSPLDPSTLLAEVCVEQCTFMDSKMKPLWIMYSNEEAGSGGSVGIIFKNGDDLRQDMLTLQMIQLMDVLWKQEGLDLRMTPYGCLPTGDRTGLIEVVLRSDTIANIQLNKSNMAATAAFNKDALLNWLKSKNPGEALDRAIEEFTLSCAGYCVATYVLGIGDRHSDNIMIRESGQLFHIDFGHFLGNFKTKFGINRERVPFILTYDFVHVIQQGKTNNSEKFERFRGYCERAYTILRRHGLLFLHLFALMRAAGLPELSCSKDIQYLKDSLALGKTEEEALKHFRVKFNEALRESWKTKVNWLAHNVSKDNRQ
As to conditions: human recombinant PI3Kδ, ATP 80 μM; read-out: PI3K delta inhibition.

In assay [4] the target is T4, PI3Kγ (Homo sapiens, UniProt P48736).
T4 construct: purchased Millipore Ltd (Billerica, Mass.)
As to conditions: human recombinant PI3Kγ, ATP 30 μM; read-out: PI3K gamma inhibition.

SMILES strings stand for the structures. Counter-ions that a name gives are not always drawn.

T4 sequence (P48736 whole entry): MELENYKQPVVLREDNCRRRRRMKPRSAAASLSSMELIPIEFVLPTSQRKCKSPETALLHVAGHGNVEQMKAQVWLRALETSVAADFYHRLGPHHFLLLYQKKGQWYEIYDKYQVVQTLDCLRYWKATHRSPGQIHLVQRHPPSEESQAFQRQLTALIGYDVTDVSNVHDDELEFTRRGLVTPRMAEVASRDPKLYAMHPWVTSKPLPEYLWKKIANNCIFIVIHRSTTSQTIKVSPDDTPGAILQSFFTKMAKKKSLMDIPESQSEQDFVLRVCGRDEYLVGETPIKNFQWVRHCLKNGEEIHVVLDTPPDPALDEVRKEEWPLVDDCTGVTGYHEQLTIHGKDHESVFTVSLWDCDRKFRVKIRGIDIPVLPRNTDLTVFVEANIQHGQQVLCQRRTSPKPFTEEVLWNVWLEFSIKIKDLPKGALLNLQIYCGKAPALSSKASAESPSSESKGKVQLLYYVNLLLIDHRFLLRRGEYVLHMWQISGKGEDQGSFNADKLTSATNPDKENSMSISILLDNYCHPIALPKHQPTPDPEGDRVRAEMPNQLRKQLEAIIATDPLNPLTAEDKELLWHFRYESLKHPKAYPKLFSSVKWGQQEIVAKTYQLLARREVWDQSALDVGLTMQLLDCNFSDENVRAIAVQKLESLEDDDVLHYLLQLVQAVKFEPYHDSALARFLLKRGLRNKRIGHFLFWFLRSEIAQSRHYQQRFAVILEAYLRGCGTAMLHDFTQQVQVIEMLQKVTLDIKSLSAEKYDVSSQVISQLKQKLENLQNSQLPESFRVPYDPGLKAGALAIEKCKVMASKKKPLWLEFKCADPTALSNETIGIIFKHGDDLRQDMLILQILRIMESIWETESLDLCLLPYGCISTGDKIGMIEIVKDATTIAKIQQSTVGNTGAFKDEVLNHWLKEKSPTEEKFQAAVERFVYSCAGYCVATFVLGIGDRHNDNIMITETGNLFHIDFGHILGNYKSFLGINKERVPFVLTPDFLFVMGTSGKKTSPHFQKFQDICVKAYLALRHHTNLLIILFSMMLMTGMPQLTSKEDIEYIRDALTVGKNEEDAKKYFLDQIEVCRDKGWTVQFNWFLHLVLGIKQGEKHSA
T2 sequence (P42338 whole entry): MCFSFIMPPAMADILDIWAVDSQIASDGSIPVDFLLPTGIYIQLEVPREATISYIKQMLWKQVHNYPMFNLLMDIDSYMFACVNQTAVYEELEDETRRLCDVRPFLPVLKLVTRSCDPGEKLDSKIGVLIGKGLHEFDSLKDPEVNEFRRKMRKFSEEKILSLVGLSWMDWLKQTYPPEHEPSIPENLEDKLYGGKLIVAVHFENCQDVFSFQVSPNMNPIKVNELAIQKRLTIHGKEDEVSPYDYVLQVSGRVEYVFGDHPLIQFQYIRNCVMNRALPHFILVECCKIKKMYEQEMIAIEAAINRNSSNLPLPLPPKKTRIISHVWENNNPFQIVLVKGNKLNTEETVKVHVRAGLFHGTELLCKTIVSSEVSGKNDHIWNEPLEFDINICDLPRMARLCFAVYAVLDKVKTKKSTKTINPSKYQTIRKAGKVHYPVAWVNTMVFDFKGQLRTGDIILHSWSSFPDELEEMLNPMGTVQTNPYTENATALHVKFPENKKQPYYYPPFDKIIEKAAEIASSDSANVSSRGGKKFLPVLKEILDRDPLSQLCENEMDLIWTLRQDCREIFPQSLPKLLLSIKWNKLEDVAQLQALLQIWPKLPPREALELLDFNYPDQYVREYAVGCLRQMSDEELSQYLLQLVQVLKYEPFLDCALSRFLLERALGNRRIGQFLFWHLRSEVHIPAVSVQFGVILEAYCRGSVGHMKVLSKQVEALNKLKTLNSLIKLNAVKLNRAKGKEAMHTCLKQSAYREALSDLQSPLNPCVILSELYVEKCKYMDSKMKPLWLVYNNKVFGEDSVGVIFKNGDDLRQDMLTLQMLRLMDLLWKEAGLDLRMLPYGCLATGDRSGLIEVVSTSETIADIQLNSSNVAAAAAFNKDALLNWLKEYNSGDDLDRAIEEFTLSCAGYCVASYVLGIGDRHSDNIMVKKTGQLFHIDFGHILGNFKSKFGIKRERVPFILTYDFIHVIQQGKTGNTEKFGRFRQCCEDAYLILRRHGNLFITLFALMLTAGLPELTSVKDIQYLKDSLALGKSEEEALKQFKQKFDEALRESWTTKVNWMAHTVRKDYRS
T1 sequence (P42336 whole entry): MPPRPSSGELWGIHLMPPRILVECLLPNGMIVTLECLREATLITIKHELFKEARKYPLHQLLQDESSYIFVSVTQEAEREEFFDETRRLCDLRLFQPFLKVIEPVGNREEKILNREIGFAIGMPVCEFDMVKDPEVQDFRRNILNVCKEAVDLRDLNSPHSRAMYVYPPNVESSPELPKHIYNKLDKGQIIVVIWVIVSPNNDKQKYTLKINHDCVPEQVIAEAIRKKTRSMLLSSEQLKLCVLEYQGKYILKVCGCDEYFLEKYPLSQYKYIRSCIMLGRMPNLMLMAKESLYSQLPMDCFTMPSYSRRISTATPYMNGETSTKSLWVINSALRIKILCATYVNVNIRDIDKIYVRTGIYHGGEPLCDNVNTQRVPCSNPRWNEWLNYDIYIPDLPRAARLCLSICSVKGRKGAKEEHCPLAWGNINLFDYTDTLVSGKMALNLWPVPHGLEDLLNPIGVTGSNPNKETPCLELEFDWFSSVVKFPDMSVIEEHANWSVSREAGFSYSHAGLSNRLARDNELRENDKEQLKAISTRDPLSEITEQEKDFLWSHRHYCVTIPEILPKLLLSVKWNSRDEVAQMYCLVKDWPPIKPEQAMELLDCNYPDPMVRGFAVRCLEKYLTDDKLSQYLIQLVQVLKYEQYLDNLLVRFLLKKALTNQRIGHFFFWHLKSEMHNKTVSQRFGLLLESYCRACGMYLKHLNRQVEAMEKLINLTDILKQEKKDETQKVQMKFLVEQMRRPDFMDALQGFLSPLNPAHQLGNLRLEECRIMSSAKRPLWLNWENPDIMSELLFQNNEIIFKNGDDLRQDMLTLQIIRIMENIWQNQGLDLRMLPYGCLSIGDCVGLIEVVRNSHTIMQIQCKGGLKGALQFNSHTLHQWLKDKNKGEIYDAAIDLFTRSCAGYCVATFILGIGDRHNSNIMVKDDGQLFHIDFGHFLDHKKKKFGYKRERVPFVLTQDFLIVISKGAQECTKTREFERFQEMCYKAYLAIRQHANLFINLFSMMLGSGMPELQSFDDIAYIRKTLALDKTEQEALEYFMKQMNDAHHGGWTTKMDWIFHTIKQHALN

For the compound `CC(c1oc(=O)c2ccccc2c1-c1ccc(CN2CCN(CCO)CC2)s1)n1nc(-c2cc(O)cc(F)c2)c2c(N)ncnc21` (single isomer, unassigned) [Example 76b, 3-(1-(4-amino-3-(3-fluoro-5-hydroxyphenyl)-1H-pyrazolo[3,4-d]pyrimidin-1-yl)ethyl)-4-(5-((4-(2-hydroxyethyl)piperazin-1-yl)methyl)thiophen-2-yl)-1H-isochromen-1-one hydrochloride], the IC50 was 10 to 1000 nM in assay [1], 10 to 1000 nM in assay [2], < 10 nM in assay [3] and 10 to 1000 nM in assay [4].

For `CC(c1oc(=O)c2ccccc2c1-c1cccc(CCCN(C)C)c1)n1nc(-c2cc(O)cc(F)c2)c2c(N)ncnc21` (single isomer, unassigned) [Example 137b, 3-(1-(4-amino-3-(3-fluoro-5-hydroxyphenyl)-1H-pyrazolo[3,4-d]pyrimidin-1-yl)ethyl)-4-(3-(3-(dimethylamino)propyl)phenyl)-1H-isochromen-1-one single enantiomers], the IC50 was > 1000 nM in assay [1], 10 to 1000 nM in assay [2], < 10 nM in assay [3] and 10 to 1000 nM in assay [4].

On to `CC(c1oc(=O)c2ccccc2c1-c1ccc(CCCN(C)C)cc1)n1nc(-c2cc(O)cc(F)c2)c2c(N)ncnc21` (single isomer, unassigned) [Example 138b, 3-(1-(4-amino-3-(3-fluoro-5-hydroxyphenyl)-1H-pyrazolo[3,4-d]pyrimidin-1-yl)ethyl)-4-(4-(3-(dimethylamino)propyl)phenyl)-1H-isochromen-1-one single enantiomers], for which the IC50 was > 1000 nM in assay [1], > 1000 nM in assay [2], < 10 nM in assay [3] and 10 to 1000 nM in assay [4].

Take `CC(c1oc(=O)c2ccccc2c1-c1cncs1)n1nc(-c2cc(O)cc(F)c2)c2c(N)ncnc21` (single isomer, unassigned) [Example 167a, 3-(1-(4-amino-3-(3-fluoro-5-hydroxyphenyl)-1H-pyrazolo[3,4-d]pyrimidin-1-yl)ethyl)-4-(thiazol-5-yl)-1H-isochromen-1-one single enantiomer]: the IC50 in assay [1] is 10 to 1000 nM; in assay [2], 10 to 1000 nM; in assay [3], < 10 nM; in assay [4] it was 10 to 1000 nM.

Take `CC(c1oc(=O)c2ccccc2c1-c1cncs1)n1nc(-c2cc(O)cc(F)c2)c2c(N)ncnc21` (single isomer, unassigned) [Example 167b, 3-(1-(4-amino-3-(3-fluoro-5-hydroxyphenyl)-1H-pyrazolo[3,4-d]pyrimidin-1-yl)ethyl)-4-(thiazol-5-yl)-1H-isochromen-1-one single enantiomer]: the IC50 in assay [1] is > 1000 nM; in assay [2] it was 10 to 1000 nM; in assay [3], < 10 nM; in assay [4], 10 to 1000 nM.

For `CC(c1oc(=O)c2ccccc2c1C1=CCCN(Cc2ccccc2)C1)n1nc(-c2cc(O)cc(F)c2)c2c(N)ncnc21` (single isomer, unassigned) [Example 169a, 3-(1-(4-amino-3-(3-fluoro-5-hydroxyphenyl)-1H-pyrazolo[3,4-d]pyrimidin-1-yl)ethyl)-4-(1-benzyl-1,2,5,6-tetrahydropyridin-3-yl)-1H-isochromen-1-one hydrochloride single enantiomers], the IC50 in assay [1] was > 1000 nM; in assay [2], 10 to 1000 nM; in assay [3], < 10 nM; in assay [4], 10 to 1000 nM.

In the case of `CC(Nc1ncnc2[nH]cnc12)c1oc(=O)c2ccccc2c1C1=CCNCC1` (stereo not shown) [Example 23, 3-(1-(9H-Purin-6-ylamino)ethyl)-4-(1,2,3,6-tetrahydropyridin-4-yl)-1H-isochromen-1-one hydrochloride], the IC50 is > 1000 nM in assay [1], 10 to 1000 nM in assay [2], < 10 nM in assay [3] and > 1000 nM in assay [4].

On to `Cc1cccc(-c2c(C(C)n3nc(-c4cc(O)cc(F)c4)c4c(N)ncnc43)oc(=O)c3ccccc23)c1` (stereo not shown) [Example 41, 3-(1-(4-Amino-3-(3-fluoro-5-hydroxyphenyl)-1H-pyrazolo[3,4-d]pyrimidin-1-yl)ethyl)-4-m-tolyl-1H-isochromen-1-one], for which the IC50 in assay [1] is 10 to 1000 nM; in assay [2] it was 10 to 1000 nM; in assay [3], < 10 nM; in assay [4], 10 to 1000 nM.

On to `CC(Nc1ncnc2[nH]cnc12)c1oc(=O)c2ccccc2c1C1=CCN(C)CC1` (stereo not shown) [Example 45, 3-(1-(9H-purin-6-ylamino)ethyl)-4-(1-methyl-1,2,3,6-tetrahydropyridin-4-yl)-1H-isochromen-1-one hydrochloride], for which the IC50 in assay [1] was > 1000 nM; in assay [2], > 1000 nM; in assay [3], < 10 nM; in assay [4] it was > 1000 nM.

In the case of `CC(Nc1ncnc2[nH]cnc12)c1oc(=O)c2ccccc2c1-c1ccc(CN2CCOCC2)cc1` (stereo not shown) [Example 47, 3-(1-(9H-purin-6-ylamino)ethyl)-4-(4-(morpholinomethyl)phenyl)-1H-isochromen-1-one hydrochloride], the IC50 in assay [1] is > 1000 nM; in assay [2], > 1000 nM; in assay [3], 10 to 1000 nM; in assay [4] it was 10 to 1000 nM.

As to `CC(c1oc(=O)c2ccccc2c1-c1ccccc1)n1nc(-c2cnc(N)s2)c2c(N)ncnc21` (stereo not shown) [Example 59, 3-(1-(4-amino-3-(2-aminothiazol-5-yl)-1H-pyrazolo[3,4-d]pyrimidin-1-yl)ethyl)-4-phenyl-1H-isochromen-1-one hydrochloride], the IC50 in assay [1] was 10 to 1000 nM; in assay [2], 10 to 1000 nM; in assay [3], < 10 nM; in assay [4], 10 to 1000 nM.

For `COc1ccc(-c2nn(C(C)c3oc(=O)c4ccccc4c3-c3ccccc3)c3ncnc(N)c23)cn1` (stereo not shown) [Example 60, 3-(1-(4-amino-3-(6-methoxypyridin-3-yl)-1H-pyrazolo[3,4-d]pyrimidin-1-yl)ethyl)-4-phenyl-1H-isochromen-1-one], the IC50 in assay [1] was 10 to 1000 nM; in assay [2], 10 to 1000 nM; in assay [3], < 10 nM; in assay [4] it was 10 to 1000 nM.

On to `CC(=O)Nc1ncc(-c2nn(C(C)c3oc(=O)c4ccccc4c3-c3ccccc3)c3ncnc(N)c23)s1` (stereo not shown) [Example 62, N-(5-(4-amino-1-(1-(1-oxo-4-phenyl-1H-isochromen-3-yl)ethyl)-1H-pyrazolo[3,4-d]pyrimidin-3-yl)thiazol-2-yl)acetamide], for which the IC50 in assay [1] was 10 to 1000 nM; in assay [2] it was 10 to 1000 nM; in assay [3], < 10 nM; in assay [4], 10 to 1000 nM.

`CC(c1oc(=O)c2ccccc2c1C1=CCCN(C)C1)n1nc(-c2cc(O)cc(F)c2)c2c(N)ncnc21` (stereo not shown) [Example 63, 3-(1-(4-amino-3-(3-fluoro-5-hydroxyphenyl)-1H-pyrazolo[3,4-d]pyrimidin-1-yl)ethyl)-4-(1-methyl-1,2,5,6-tetrahydropyridin-3-yl)-1H-isochromen-1-one hydrochloride]: the IC50 was 10 to 1000 nM in assay [1], 10 to 1000 nM in assay [2], < 10 nM in assay [3] and 10 to 1000 nM in assay [4].

On to `CC(c1oc(=O)c2ccccc2c1C1=CCN(Cc2ccncc2)CC1)n1nc(-c2cc(O)cc(F)c2)c2c(N)ncnc21` (stereo not shown) [Example 65, 3-(1-(4-amino-3-(3-fluoro-5-hydroxyphenyl)-1H-pyrazolo[3,4-d]pyrimidin-1-yl)ethyl)-4-(1-(pyridin-4-ylmethyl)-1,2,3,6-tetrahydropyridin-4-yl)-1H-isochromen-1-one hydrochloride], for which the IC50 in assay [1] is 10 to 1000 nM; in assay [2], 10 to 1000 nM; in assay [3], < 10 nM; in assay [4] it was 10 to 1000 nM.

On to `CC(c1oc(=O)c2ccccc2c1C1=CCN(CC2CC2)CC1)n1nc(-c2cc(O)cc(F)c2)c2c(N)ncnc21` (stereo not shown) [Example 66, 3-(1-(4-amino-3-(3-fluoro-5-hydroxyphenyl)-1H-pyrazolo[3,4-d]pyrimidin-1-yl)ethyl)-4-(1-(cyclopropylmethyl)-1,2,3,6-tetrahydropyridin-4-yl)-1H-isochromen-1-one hydrochloride], for which the IC50 in assay [1] was 10 to 1000 nM; in assay [2], 10 to 1000 nM; in assay [3], < 10 nM; in assay [4] it was 10 to 1000 nM.
